In article PMC5913603, “Structure–activity relationships of strigolactones via a novel, quantitative in planta bioassay” (Journal of Experimental Botany, 2018):
Entries after “also recorded” stand apart in the source; their conditions may differ.

Molecular target: T1, AtD14 fused to firefly luciferase (D14::LUC) (Arabidopsis thaliana, UniProt Q9SQR3)
T1 construct: a pDONOR207 carrying the D14 promoter fused to the D14 CDS; expressed in transfected cells
T1 sequence (Q9SQR3 1-267): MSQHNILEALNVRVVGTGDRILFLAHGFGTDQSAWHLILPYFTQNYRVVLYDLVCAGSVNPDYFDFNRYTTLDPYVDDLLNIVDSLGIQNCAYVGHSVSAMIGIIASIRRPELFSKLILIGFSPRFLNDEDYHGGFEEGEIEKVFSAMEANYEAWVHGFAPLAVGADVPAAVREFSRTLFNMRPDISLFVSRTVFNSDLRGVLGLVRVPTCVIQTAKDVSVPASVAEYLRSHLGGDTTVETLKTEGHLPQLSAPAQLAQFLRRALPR
Experiment: Luminometer-based competition assay between rac-9 and (+)-GR24
Format: in vivo
Details: rac-9 constant at 10 μM, (+)-GR24 0.01–100 μM
Method: The efficacy values in these samples in terms of luminescence quenching were compared with those of samples receiving (+)-GR24 alone (positive control). […] Luciferase competition test between rac-9 and (+)-GR24. (A) Efficacy values for (+)-GR24 across a range of concentrations, normalized to the value at 1 μM, which was set to 100%. (B) Efficacy values for (+)-GR24 across the same range of concentrations as in (A), but in the presence of rac-9 at 10 μM. Data are means (±SD) of n=5 replicates, where each replicate consisted of at least three pooled individual seedlings and readings.

Compound: CC1=CC(C2Cc3c(n(C)c4ccccc34)C2=O)NC1=O (racemic) [rac-9]
- Antagonism of (+)-GR24: no antagonistic behaviour; also recorded: did not possess antagonistic activity
